TGI data for four molecules are collected here from PubChem BioAssay (NCI).

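Values below derive from 48-hour exposures of cells grown in 96-well plates, with endpoints linearly interpolated between the two concentrations bracketing the appropriate inhibition level. TGI: concentration producing complete growth inhibition.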 Bounds are passed on as bounds.

For the first experiment, the system named is NCI-H23 lung. Description: inhibition of tumour cell growth, NCI panel, 48 h.
Take `CCCCCCCCCCCC(=O)Oc1c(Cl)cc(Cl)c(OC(=O)C(=O)Oc2c(Cl)cc(Cl)c(OC(=O)CCCCCCCCCCC)c2Cl)c1Cl`: the TGI was over 100 µM.
The same measure, in the same setting: to `CC(NNC(=O)c1ccncc1)c1ccc(F)cc1` (stereo not drawn) belongs over 100 µM; to `Cn1c(=S)[nH]c2sc3c(c2c1=O)CCSC3`, over 100 µM; to `O=C(/C=C/c1ccccc1)/C=N/N1C(=S)N(c2ccccc2)C(=Nc2ccccc2)C1=Nc1ccccc1`, over 100 µM.

The subject of the next experiment is NCI-H460 lung. Description: inhibition of tumour cell growth, NCI panel, 48 h.
Molecule `CCCCCCCCCCCC(=O)Oc1c(Cl)cc(Cl)c(OC(=O)C(=O)Oc2c(Cl)cc(Cl)c(OC(=O)CCCCCCCCCCC)c2Cl)c1Cl` registered a TGI of over 100 µM.
On to `CC(NNC(=O)c1ccncc1)c1ccc(F)cc1` (stereo not drawn), for which the TGI is over 100 µM.
The same measure, in the same setting: to `Cn1c(=S)[nH]c2sc3c(c2c1=O)CCSC3` belongs over 100 µM; to `O=C(/C=C/c1ccccc1)/C=N/N1C(=S)N(c2ccccc2)C(=Nc2ccccc2)C1=Nc1ccccc1`, over 100 µM.

The test system of the next experiment is NCI-H522 lung. Description: inhibition of tumour cell growth, NCI panel, 48 h.
Regarding `CCCCCCCCCCCC(=O)Oc1c(Cl)cc(Cl)c(OC(=O)C(=O)Oc2c(Cl)cc(Cl)c(OC(=O)CCCCCCCCCCC)c2Cl)c1Cl`, the TGI is over 100 µM.
Take `CC(NNC(=O)c1ccncc1)c1ccc(F)cc1` (stereo not drawn): the TGI is over 100 µM.
The same measure, in the same setting: for `Cn1c(=S)[nH]c2sc3c(c2c1=O)CCSC3` the value was over 100 µM; for `O=C(/C=C/c1ccccc1)/C=N/N1C(=S)N(c2ccccc2)C(=Nc2ccccc2)C1=Nc1ccccc1`, 62.9 µM.

The next experiment relates to NCI/ADR-RES ovarian. Description: inhibition of tumour cell growth, NCI panel, 48 h.
Regarding `CCCCCCCCCCCC(=O)Oc1c(Cl)cc(Cl)c(OC(=O)C(=O)Oc2c(Cl)cc(Cl)c(OC(=O)CCCCCCCCCCC)c2Cl)c1Cl`, the TGI was over 100 µM.
In turn, `CC(NNC(=O)c1ccncc1)c1ccc(F)cc1` (stereo not drawn) gave a TGI of over 100 µM.
As for `Cn1c(=S)[nH]c2sc3c(c2c1=O)CCSC3`, the TGI is over 100 µM.
The same measure, in the same setting: to `O=C(/C=C/c1ccccc1)/C=N/N1C(=S)N(c2ccccc2)C(=Nc2ccccc2)C1=Nc1ccccc1` belongs over 100 µM.

The test system of another experiment is OVCAR-3 ovarian. Description: inhibition of tumour cell growth, NCI panel, 48 h.
In the case of `CC(NNC(=O)c1ccncc1)c1ccc(F)cc1` (stereo not drawn), the TGI was over 100 µM.
`Cn1c(=S)[nH]c2sc3c(c2c1=O)CCSC3` returned a TGI of 61 µM.
Consider `O=C(/C=C/c1ccccc1)/C=N/N1C(=S)N(c2ccccc2)C(=Nc2ccccc2)C1=Nc1ccccc1`, for which the TGI was over 100 µM.

Another experiment concerns OVCAR-4 ovarian. Description: inhibition of tumour cell growth, NCI panel, 48 h.
Turning to `CCCCCCCCCCCC(=O)Oc1c(Cl)cc(Cl)c(OC(=O)C(=O)Oc2c(Cl)cc(Cl)c(OC(=O)CCCCCCCCCCC)c2Cl)c1Cl`, the TGI is over 100 µM.
Still for that read-out and setting: for `CC(NNC(=O)c1ccncc1)c1ccc(F)cc1` (stereo not drawn) the value was over 100 µM.
The same measure, in the same setting: to `Cn1c(=S)[nH]c2sc3c(c2c1=O)CCSC3` belongs over 100 µM.

In a further experiment the test system is OVCAR-5 ovarian. Description: inhibition of tumour cell growth, NCI panel, 48 h.
Molecule `CCCCCCCCCCCC(=O)Oc1c(Cl)cc(Cl)c(OC(=O)C(=O)Oc2c(Cl)cc(Cl)c(OC(=O)CCCCCCCCCCC)c2Cl)c1Cl` gave a TGI of over 100 µM.
For `CC(NNC(=O)c1ccncc1)c1ccc(F)cc1` (stereo not drawn), the TGI was over 100 µM.
With `Cn1c(=S)[nH]c2sc3c(c2c1=O)CCSC3`, the TGI was over 100 µM.
Same read-out and setting: to `O=C(/C=C/c1ccccc1)/C=N/N1C(=S)N(c2ccccc2)C(=Nc2ccccc2)C1=Nc1ccccc1` belongs over 100 µM.

For the next experiment, the system named is OVCAR-8 ovarian. The experiment in a line: inhibition of tumour cell growth, NCI panel, 48 h.
With `CCCCCCCCCCCC(=O)Oc1c(Cl)cc(Cl)c(OC(=O)C(=O)Oc2c(Cl)cc(Cl)c(OC(=O)CCCCCCCCCCC)c2Cl)c1Cl`, the TGI is over 100 µM.
As to `CC(NNC(=O)c1ccncc1)c1ccc(F)cc1` (stereo not drawn), the TGI was over 100 µM.
As for `Cn1c(=S)[nH]c2sc3c(c2c1=O)CCSC3`, the TGI was over 100 µM.
The same measure, in the same setting: to `O=C(/C=C/c1ccccc1)/C=N/N1C(=S)N(c2ccccc2)C(=Nc2ccccc2)C1=Nc1ccccc1` belongs over 100 µM.

The next experiment has as its system PC-3 prostate. Description: inhibition of tumour cell growth, NCI panel, 48 h.
`CCCCCCCCCCCC(=O)Oc1c(Cl)cc(Cl)c(OC(=O)C(=O)Oc2c(Cl)cc(Cl)c(OC(=O)CCCCCCCCCCC)c2Cl)c1Cl` displayed a TGI of over 100 µM.
Same read-out and setting: to `CC(NNC(=O)c1ccncc1)c1ccc(F)cc1` (stereo not drawn) belongs over 100 µM; to `Cn1c(=S)[nH]c2sc3c(c2c1=O)CCSC3`, over 100 µM.
Take `O=C(/C=C/c1ccccc1)/C=N/N1C(=S)N(c2ccccc2)C(=Nc2ccccc2)C1=Nc1ccccc1`: the TGI was over 100 µM.

In the next experiment the test system is RPMI-8226 leukemia. The experiment in a line: inhibition of tumour cell growth, NCI panel, 48 h.
On to `CCCCCCCCCCCC(=O)Oc1c(Cl)cc(Cl)c(OC(=O)C(=O)Oc2c(Cl)cc(Cl)c(OC(=O)CCCCCCCCCCC)c2Cl)c1Cl`, for which the TGI is over 100 µM.
On the same count and under the same terms, for `Cn1c(=S)[nH]c2sc3c(c2c1=O)CCSC3` the value was over 100 µM; for `O=C(/C=C/c1ccccc1)/C=N/N1C(=S)N(c2ccccc2)C(=Nc2ccccc2)C1=Nc1ccccc1`, over 100 µM.

The next experiment has as its system RXF 393 renal. Description: inhibition of tumour cell growth, NCI panel, 48 h.
With `CCCCCCCCCCCC(=O)Oc1c(Cl)cc(Cl)c(OC(=O)C(=O)Oc2c(Cl)cc(Cl)c(OC(=O)CCCCCCCCCCC)c2Cl)c1Cl`, the TGI was over 100 µM.
On the same count and under the same terms, to `CC(NNC(=O)c1ccncc1)c1ccc(F)cc1` (stereo not drawn) belongs over 100 µM; to `Cn1c(=S)[nH]c2sc3c(c2c1=O)CCSC3`, 14.7 µM.
`O=C(/C=C/c1ccccc1)/C=N/N1C(=S)N(c2ccccc2)C(=Nc2ccccc2)C1=Nc1ccccc1`: the TGI was over 100 µM.

The subject of the next experiment is SF-268 CNS. The experiment in a line: inhibition of tumour cell growth, NCI panel, 48 h.
On to `CCCCCCCCCCCC(=O)Oc1c(Cl)cc(Cl)c(OC(=O)C(=O)Oc2c(Cl)cc(Cl)c(OC(=O)CCCCCCCCCCC)c2Cl)c1Cl`, for which the TGI is over 100 µM.
Still for that read-out and setting: to `CC(NNC(=O)c1ccncc1)c1ccc(F)cc1` (stereo not drawn) belongs over 100 µM; to `Cn1c(=S)[nH]c2sc3c(c2c1=O)CCSC3`, over 100 µM.
`O=C(/C=C/c1ccccc1)/C=N/N1C(=S)N(c2ccccc2)C(=Nc2ccccc2)C1=Nc1ccccc1` registered a TGI of over 100 µM.

The subject of a further experiment is SF-295 CNS. The experiment in a line: inhibition of tumour cell growth, NCI panel, 48 h.
`CCCCCCCCCCCC(=O)Oc1c(Cl)cc(Cl)c(OC(=O)C(=O)Oc2c(Cl)cc(Cl)c(OC(=O)CCCCCCCCCCC)c2Cl)c1Cl`: the TGI was over 100 µM.
Same read-out and setting: for `CC(NNC(=O)c1ccncc1)c1ccc(F)cc1` (stereo not drawn) the value was over 100 µM; for `Cn1c(=S)[nH]c2sc3c(c2c1=O)CCSC3`, 97.3 µM; for `O=C(/C=C/c1ccccc1)/C=N/N1C(=S)N(c2ccccc2)C(=Nc2ccccc2)C1=Nc1ccccc1`, over 100 µM.

The subject of another experiment is SF-539 CNS. Description: inhibition of tumour cell growth, NCI panel, 48 h.
In turn, `CC(NNC(=O)c1ccncc1)c1ccc(F)cc1` (stereo not drawn) came in with a TGI of over 100 µM.
Same read-out and setting: for `Cn1c(=S)[nH]c2sc3c(c2c1=O)CCSC3` the value was over 100 µM.
Same read-out and setting: for `O=C(/C=C/c1ccccc1)/C=N/N1C(=S)N(c2ccccc2)C(=Nc2ccccc2)C1=Nc1ccccc1` the value was over 100 µM.

A further experiment relates to SK-MEL-2 melanoma. The experiment in a line: inhibition of tumour cell growth, NCI panel, 48 h.
On to `CC(NNC(=O)c1ccncc1)c1ccc(F)cc1` (stereo not drawn), for which the TGI was over 100 µM.
